A short description of series [1]: Solubility of bilastine vs. HPβCD concentration and pH. Format: physicochemical. Conditions: aqueous HPβCD solution, thermodynamic from solid. The procedure: The concentration of bilastine in the solubility tests was determined by UV/vis spectrophotometer was a Cary® 60 UV-VIS.
The solubility of bilastine was determined at different concentrations of HPβCD and pH values.
The desired amount of HPβCD was dispersed in 40 ml of purified water in a 50 ml flask until complete dissolution and further diluted with water up to a final volume of 50 ml. Each solution was divided into three solutions (15 ml each) and the pH was adjusted with HCl 37% to the desired values (3, 5 or 7, respectively). Each solution was transferred again into three vials (5 mL solution each) in order to have several replicates for each sample. Bilastine was added in excess to each vial and the solutions were kept under magnetic stirring for 24 hours. After that time, the pH was adjusted again and they were kept stirring for another 24 hours. Finally, the samples were filtered through 0.45 μm filters (Biofil®, Nylon membrane, 13 mm Ø), the final pH was checked and the concentration was determined by UV spectrophotometry at a wavelength of 254 nm. The statistical analysis of the results was carried out using the Centurion XVI Statgraphics program version 16.1.15.

The conditions of series [2]: pH 5-8; cited from earlier work.

Results on one molecule are retold here after patent US20250228836A1, “BILASTINE COMPOSITION FOR ONCE-DAILY PARENTERAL ADMINISTRATION” (FAES FARMA, S.A., priority 2022, published 2025).

In brackets after ≈: the same amount, converted by molar mass.

What is called solubility is the dissolved amount per volume that the medium holds. Read a high solubility as much dissolved substance. For `CCOCCn1c(C2CCN(CCc3ccc(C(C)(C)C(=O)O)cc3)CC2)nc2ccccc21` [Bilastine, 2-[4-(2-{4-[1-(2-ethoxyethyl)-1H-benzimidazol-2-yl]-1-piperidinyl}ethyl)phenyl]-2-methylpropanoic acid], the solubility at 48 h in series [1] (aqueous with cosolvent or surfactant or cyclodextrin, Entry 3: HPβCD 30 % w/v, final pH 4.14) stood at 37.8 mg/mL (≈ 81.5 mM); in series [1] (aqueous with cosolvent or surfactant or cyclodextrin, Entry 4: HPβCD 20 % w/v, final pH 5.16) it was 18.4 mg/mL (≈ 39.6 mM); in series [1] (aqueous with cosolvent or surfactant or cyclodextrin, Entry 5: HPβCD 30 % w/v, final pH 5.13), 27.2 mg/mL (≈ 58.7 mM); in series [1] (aqueous with cosolvent or surfactant or cyclodextrin, Entry 6: HPβCD 30 % w/v, final pH 7.15), 16.9 mg/mL (≈ 36.5 mM); in series [1] (pH 4.6, aqueous with cosolvent or surfactant or cyclodextrin, Entry 2: HPβCD 20 % w/v, final pH 4.60) it was 35.1 mg/mL (≈ 75.7 mM); in series [1] (pH 4.7, aqueous with cosolvent or surfactant or cyclodextrin, Entry 1: HPβCD 10 % w/v, final pH 4.70) it was 18.3 mg/mL (≈ 39.4 mM). Moreover, in series [2], the “water solubility of bilastine” value is given as “about 0.5 mg/ml”.
